Molecules are shown by their SMILES.

Consider 79 compounds from the METLIN SMRT retention time set (Domingo-Almenara et al. 2019).

This data set in a line: gradient 5% acetonitrile 3 min, to 50% in 2 min, to 85% in 15 min, held 3 min, 100 µL/min. The note with it: column: Zorbax Extend-C18 2.1 x 50 mm; eluents: water / acetonitrile, 0.1% formic acid. The method in brief:
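The mobile phases were water and acetonitrile, each with 0.1% formic acid, pumped at 100 μL/min through a Zorbax Extend-C18 column (2.1 × 50 mm, 1.8 μm). Pure standards were injected as mixtures of ~100 molecules and detected by a quadrupole time-of-flight mass spectrometer in positive and negative ionization mode. Retention time came from computationally picked adduct peaks, each inspected by hand.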
`COc1ccc(-c2nn3c(-c4ccc5ccccc5n4)nnc3s2)cc1OC` yielded an RP-LC retention time of 886 s.

`Cc1ccc(CNC(=O)CSc2nccc(N3CCN(c4cc(C)ccc4C)CC3)n2)cc1` returned an RP-LC retention time of 958 s.

`CCOc1ccccc1CN1CC(CO)C2(CCNCC2)C1` (centres undefined) displayed an RP-LC retention time of 520 s.

Compound `CC(C)[Si]1(C(C)C)OCC2OC(n3cnc4c(N)ncnc43)C(N)C2O[Si](C(C)C)(C(C)C)O1` (centres undefined) gave an RP-LC retention time of 828 s.

Compound `CCOc1ccccc1NC(=O)CSc1ncc(-c2cccc(Br)c2)o1` showed an RP-LC retention time of 1170 s.

The compound `O=C(N1CCC(Cc2noc(-c3ccc(F)cc3)n2)C1)C1(c2ccccc2)CC1` (centres undefined) yielded an RP-LC retention time of 1010 s.

`O=c1c2c(nc(SCc3ccccn3)n1CCc1ccccc1)CCS2`: the RP-LC retention time is 657 s.

In the case of `COc1ccc(F)cc1S(=O)(=O)N1CCN(C2CCN(C)C2=O)CC1` (centres undefined), the RP-LC retention time turned out to be 550 s.

`COc1ccc(S(=O)(=O)N2CCCC(C(=O)N3CCC(Cc4ccccc4)CC3)C2)cc1Cl` (centres undefined) registered an RP-LC retention time of 1170 s.

In turn, `COCC(=O)Nc1ccc2c(c1)Sc1ncccc1C(=O)N2C(C)C` displayed an RP-LC retention time of 645 s.

Compound `CCCCCNC(=O)c1cn(C)nc1S(=O)(=O)N1CCSCC1` yielded an RP-LC retention time of 897 s.

Consider `COc1ccc(-c2nc(NC3CC3)c3ccccc3n2)cc1`, for which the RP-LC retention time is 706 s.

`Cc1ccc(-c2cn3ccn(-c4cccc(F)c4)c(=O)c3n2)cc1C` displayed an RP-LC retention time of 873 s.

As to `Cc1cc(C)c(NC(=O)C2CCCN(c3nnc(C)c4c(C)n(-c5ccccc5)nc34)C2)c(C)c1` (centres undefined), the RP-LC retention time was 769 s.

`Cc1nc(-c2cn(C(C)C)c3ncccc23)sc1C(=O)NCc1cccnc1`: the RP-LC retention time came out at 657 s.

With `CS(=O)(=O)Nc1cccc(C2=NN(S(C)(=O)=O)C(c3cccc([N+](=O)[O-])c3)C2)c1` (centres undefined), the RP-LC retention time came out at 740 s.

Compound `Cc1cc(C)c(S(=O)(=O)Nc2ccc(CC(=O)N3CCC(O)CC3)cc2)c(C)c1` showed an RP-LC retention time of 676 s.

As for `Cc1nn2c(CNC(=O)Cc3cccc(C(F)(F)F)c3)c(C)nc2s1`, the RP-LC retention time stood at 679 s.

In the case of `COc1ccc(-c2cc(C(=O)Nc3ccc4c(c3)CCC(=O)N4)c3ccccc3n2)cc1`, the RP-LC retention time came to 822 s.

In turn, `Cc1cc(OCC(=O)Nc2nc(-c3ccccc3)cs2)cc(C)c1Cl` displayed an RP-LC retention time of 1250 s.

`O=c1ccn(-c2cccc(F)c2)nc1-c1nc(-c2ccc(Br)cc2)no1` displayed an RP-LC retention time of 1000 s.

As for `CCc1nc(-c2csc(S(=O)(=O)N3CCC(C(=O)Nc4ccc(F)cc4)CC3)c2)no1`, the RP-LC retention time was 962 s.

In turn, `CCOc1ccc(NC(=O)Cn2nc3n(c2=O)CCCCC3)cc1` yielded an RP-LC retention time of 690 s.

The compound `CCN(CC)C(=O)CN1C(=O)COc2ccc(C(=O)N3CCCCC3)cc21` gave an RP-LC retention time of 695 s.

`Brc1ccc(Nc2nc(-c3ccccc3)cs2)nc1` had an RP-LC retention time of 1210 s.

Compound `CCOc1ccccc1-c1csc(NC(=O)Cc2csc(COc3cc(C)ccc3C)n2)n1` registered an RP-LC retention time of 1360 s.

`CCCCN(CC)CCNC(=O)C1CCC(=O)N(c2ccc(OC)cc2)C1c1ccc(F)cc1` (centres undefined) yielded an RP-LC retention time of 633 s.

In turn, `Cc1cc(C)c2c(=O)n(Cc3nc(-c4ccccc4)oc3C)c(=O)n(Cc3ccco3)c2n1` displayed an RP-LC retention time of 1380 s.

In the case of `CC(=O)c1cccc(NC(=O)Cn2c(=O)n(-c3ccc(C)cc3)c(=O)c3c2cc(C)n3C)c1`, the RP-LC retention time turned out to be 819 s.

On to `CCOc1ccc(C2C(C(=O)OCCOC)=C(C)NC3=C2C(=O)CCC3)cc1OC` (centres undefined), for which the RP-LC retention time is 700 s.

In the case of `COc1ccc(CC(=O)NCCc2cn(C)c3ncccc23)c(Cl)c1`, the RP-LC retention time turned out to be 690 s.

In turn, `CCN1CCN(C(=O)c2cnn(-c3cc(-c4nc(C)no4)ccn3)c2C)CC1` came in with an RP-LC retention time of 585 s.

Compound `Cc1ccc(S(=O)(=O)N2CCCC2C(=O)Nc2ccc(C)cc2C)cc1` (centres undefined) displayed an RP-LC retention time of 969 s.

On to `CCOc1ccc(NC(=O)N2CCN(c3cnn4c(C)nnc4c3)CC2)cc1`, for which the RP-LC retention time came out at 648 s.

The compound `CCn1cc(-c2nc(C(=O)Nc3cc(F)cc(F)c3)cs2)c2cccnc21` showed an RP-LC retention time of 1180 s.

As to `CN1C(=O)c2cc(C(=O)NCc3ccc(F)cc3)nn2CC1(C)C(=O)NC1CCCCC1` (centres undefined), the RP-LC retention time came to 791 s.

The compound `Cc1cc(-c2c(C)sc(C)c2S(=O)(=O)NC2CCC(C)CC2)n[nH]1` (centres undefined) had an RP-LC retention time of 1140 s.

In the case of `Cc1ccn2cc(C(=O)NCCN(C)C3CCCCC3)nc2c1`, the RP-LC retention time is 572 s.

In turn, `O=c1c2c([nH]c3ccc(Cl)cc13)CCN(Cc1ccc(F)cc1)C2` had an RP-LC retention time of 620 s.

`Cc1ccc(CN2CCN(C3CCN(C(=O)Nc4ccc(F)cc4)CC3)C(=O)C2=O)cc1` showed an RP-LC retention time of 776 s.

`CN(C)c1nc2ncn3c(=O)n(CC(=O)Nc4ccc(F)c(F)c4)nc3c2s1`: the RP-LC retention time is 696 s.

On to `Clc1cc(Cl)cc(-c2ccc(CNCc3cccnc3)o2)c1`, for which the RP-LC retention time is 733 s.

As to `CC(C)CN1C(=O)CCc2cc(NS(=O)(=O)c3ccc(F)cc3)ccc21`, the RP-LC retention time stood at 861 s.

In the case of `CNC(=O)c1cnn(-c2cccc(C)c2)c1-n1cccc1`, the RP-LC retention time stood at 804 s.

With `Cc1ccc(N2C(=O)C3N=NN(Cc4nc(-c5ccc6c(c5)OCO6)no4)C3C2=O)cc1Cl` (centres undefined), the RP-LC retention time was 1010 s.

Turning to `COC(=O)CCNC(=O)c1cc2c(=O)n(CC(C)C)c3ccccc3n2n1`, the RP-LC retention time was found to be 828 s.

`Cc1noc(C)c1-c1ccc(S(=O)(=O)N2CCCCCC2)cc1` gave an RP-LC retention time of 1020 s.

`CC(=O)Nc1ccc(C(=O)N2CCN(c3cc(-c4ccc(Cl)cc4)[nH]n3)CC2)cc1` showed an RP-LC retention time of 708 s.

In turn, `COc1ccccc1-c1csc(NC(=O)c2sc(-c3ccccc3)nc2C)n1` showed an RP-LC retention time of 1250 s.

In turn, `Cc1cc(C)cc(Nc2cc(C)n3c(=O)n(Cc4cc(=O)n5ccccc5n4)nc3n2)c1` displayed an RP-LC retention time of 993 s.

Compound `CC1CCCN(c2nn3c(C(=O)NCCc4c[nH]c5ccccc45)cc(=O)nc3s2)C1` (centres undefined) showed an RP-LC retention time of 838 s.

In turn, `c1ccc2cc(CC3=NCCN3)ccc2c1` registered an RP-LC retention time of 649 s.

As for `COc1ccc(C2NC(=O)NC(C)=C2C(=O)OCCc2ccccc2)c(OC)c1` (centres undefined), the RP-LC retention time amounted to 957 s.

As for `Cc1ccc(N2CCC(NC(=O)NC(C)C)C2=O)cc1` (centres undefined), the RP-LC retention time came to 688 s.

`CN1CCN(c2ncc(C(=O)O)c(-c3ccccc3)n2)CC1` displayed an RP-LC retention time of 562 s.

In the case of `CNC(=O)C1CN(S(=O)(=O)c2cccs2)CC12CCCCC2` (centres undefined), the RP-LC retention time turned out to be 697 s.

In turn, `O=C(CCCN1C(=O)C(c2ccccc2)Oc2cccnc21)NCCCN1CCCCC1` (centres undefined) displayed an RP-LC retention time of 573 s.

For `Cc1nn(-c2ccccc2)c2c1N(C(=O)CCC(=O)NCCc1c[nH]c3ccccc13)CCS2`, the RP-LC retention time is 850 s.

Take `CCCCN(CC)C(=O)C1CCCN(c2nccc(C)n2)C1` (centres undefined): the RP-LC retention time amounted to 752 s.

As for `O=C(NCc1ccc(Cl)cc1)C1CCN(c2cnc(N3CCCC3)nc2)CC1`, the RP-LC retention time came out at 712 s.

`COc1ccc(NC(=O)C2CCN(S(=O)(=O)c3cn(C(C)C)cn3)CC2)c(OC)c1` registered an RP-LC retention time of 951 s.

For `COC(=O)c1cnc2nc(C)ccc2c1Nc1cccc(Cl)c1`, the RP-LC retention time worked out at 705 s.

For the compound `CCCNC(=O)C1CCCN(c2ccc(SCC(=O)NCc3ccccc3Cl)nn2)C1` (centres undefined), the RP-LC retention time came to 661 s.

Consider `O=C1NC2(CCN(C(=O)c3cccc(F)c3)CC2)Nc2c(Cl)cccc21`, for which the RP-LC retention time was 756 s.

Consider `Cc1ccc(-c2cc(NC(=O)C3CC3)on2)s1`, for which the RP-LC retention time was determined as 869 s.

The compound `COc1cc(NC(=O)N2CCN(c3cc(-c4ccccc4)ncn3)CC2)cc(OC)c1` returned an RP-LC retention time of 649 s.

`O=C(Nc1ccc(N2CCN(C3CCCCC3)C2=O)nc1)c1ccccc1F` displayed an RP-LC retention time of 850 s.

Turning to `O=C(Cn1c(=O)oc2ccccc21)N1CCN(S(=O)(=O)C2CC2)CC1`, the RP-LC retention time was 670 s.

`CCn1cccc1-c1nc(C)c(C(=O)Nc2ccc(C)c(C)c2)s1` gave an RP-LC retention time of 1270 s.

In turn, `CCc1ccc(CNC(=O)CC2CCN(C(=O)c3[nH]c(C)cc3C)CC2)cc1` displayed an RP-LC retention time of 857 s.

With `COCCC(=O)N1CC(c2nc(CCOC)no2)C1`, the RP-LC retention time turned out to be 581 s.

`O=C(Nc1cccc(F)c1)c1c(O)c2cccnc2n(-c2ccccc2)c1=O` yielded an RP-LC retention time of 1230 s.

On to `O=C(CCCc1ccccc1)N1CCN(c2nc(CN3CCCCC3)cs2)CC1`, for which the RP-LC retention time was found to be 692 s.

On to `O=C(C1=NNc2ccccc2S1(=O)=O)N1CCCCCC1`, for which the RP-LC retention time is 735 s.

The compound `CCS(=O)(=O)N1CC(=O)N(c2ccc(C(C)C)cc2)C(C)(C(=O)NCc2ccc(F)cc2)C1` (centres undefined) returned an RP-LC retention time of 872 s.

The compound `Cc1ccc(CNC(=O)C2CCCN(C(=O)C3Sc4ccccc4NC3=O)C2)cc1` (centres undefined) returned an RP-LC retention time of 782 s.

`CCCc1nc(-c2c(C)cc(C)nc2NC(=O)c2ccc(F)cc2)no1` registered an RP-LC retention time of 864 s.

`CCN(CCNC(=O)C1CCCN(c2ncnc3c2nc2n3CCCCC2)C1)Cc1ccccc1` (centres undefined) had an RP-LC retention time of 639 s.

`CCOC(=O)c1c(NC(=O)C2CCN(S(=O)(=O)Cc3ccccc3)CC2)sc2c1CCCC2`: the RP-LC retention time was determined as 1340 s.
